Results: the supplement of paper PMC4862054

Experiments:
Assay in all cases: normalised response (% of control), CellTiter-Glo; higher = more viable cells (100 = DMSO, 0 = benzethonium chloride kill control)
Conditions in all cases: incubation time: 72 h
BT-474 [1] = system: BT-474
In short: (§1)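 Plates were normalised with 0.1 % DMSO as 100 and a positive kill control as 0. Breast cancer cell lines in 20 µl suspension had been seeded into 384-well plates with compound at 5 concentrations in 10-fold steps over a compound-specific 10,000-fold range, incubated 72 h, and read for CellTox Green fluorescence (485/520 nm) followed by CellTiter-Glo luminescence. Each value is the normalised signal at a single concentration.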

HCC1937 [2] = system: HCC1937
In short: as §1

SK-BR-3 [3] = system: SK-BR-3
In short: as §1

BT-474 [4] = system: BT-474; remark: listed apart in the source
Description: (§2)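 DSRT, 72 h incubation, CellTox Green / CellTiter-Glo readout. Signal is normalised to DMSO and benzethonium chloride controls. Value is the normalised response at the highest dose.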

BT-549 = system: BT-549
Description: as §2

CAL-120 = system: CAL-120
Description: as §2

CAL-148 = system: CAL-148
Description: as §2

CAL-51 = system: CAL-51
Description: as §2

CAL-85-1 = system: CAL-85-1
Description: as §2

DU-4475 = system: DU-4475
Description: as §2

HCC1143 = system: HCC1143
Description: as §2

HCC1599 = system: HCC1599
Description: as §2

HCC1937 [5] = system: HCC1937; remark: listed apart in the source
Description: as §2

HDQ-P1 = system: HDQ-P1
Description: as §2

Hs578T = system: Hs578T
Description: as §2

MCF-10A = system: MCF-10A
Description: as §2

MDA-MB-231 = system: MDA-MB-231
Description: as §2

MDA-MB-436 = system: MDA-MB-436
Description: as §2

MDA-MB-453 = system: MDA-MB-453
Description: as §2

MDA-MB-468 = system: MDA-MB-468
Description: as §2

MFM-223 = system: MFM-223
Description: as §2

SK-BR-3 [6] = system: SK-BR-3; remark: listed apart in the source
Description: as §2

SMILES | normalised response (BT-474 [1]) | normalised response (HCC1937 [2]) | normalised response (SK-BR-3 [3]) | normalised response (BT-474 [4]) | normalised response (BT-549) | normalised response (CAL-120) | normalised response (CAL-148) | normalised response (CAL-51) | normalised response (CAL-85-1) | normalised response (DU-4475) | normalised response (HCC1143) | normalised response (HCC1599) | normalised response (HCC1937 [5]) | normalised response (HDQ-P1) | normalised response (Hs578T) | normalised response (MCF-10A) | normalised response (MDA-MB-231) | normalised response (MDA-MB-436) | normalised response (MDA-MB-453) | normalised response (MDA-MB-468) | normalised response (MFM-223) | normalised response (SK-BR-3 [6])
COc1ncc(-c2ccc3nccc(-c4ccnnc4)c3c2)cc1NS(=O)(=O)c1ccc(F)cc1F (100 nM) | 52.7% | 54.6% | 23.6% |  |  |  |  |  |  |  |  |  |  |  |  |  |  |  |  |  |  | 
COC1=CC(c2cc3ccccc3[nH]2)=N/C1=C\c1[nH]c(C)cc1C [Obatoclax] (10000 nM) |  |  |  | 70.5% | 29.3% | 92.5% | 76.5% | 7.62% | 76.3% | 84% | 92% | 88.2% | 67.7% | 91.1% | 74.7% | 95.8% | 66.9% | 81.6% | 57.5% | 79.3% | 71.2% | 64.3%
CC(C)C[C@H](NC(=O)[C@H](Cc1ccccc1)NC(=O)c1cnccn1)B(O)O [Bortezomib] (100 nM) | 1.56% | 59% | 4.21% |  |  |  |  |  |  |  |  |  |  |  |  |  |  |  |  |  |  | 
CCS(=O)(=O)c1cccc(-c2cc(C(=O)NC3CCN(C)CC3)c(C)c3[nH]c4ncc(C)cc4c23)c1 [TAK-901] (1000 nM) |  |  |  | 31.6% | 28.7% | 52.8% | 92.8% | 49.8% | 73.4% | 84.9% | 44.4% | 82.3% | 64.5% | 39.4% | 75.2% | 25.4% | 23% | 57% | 104% | 36.4% | 45.9% | 80.4%
CCOc1cc2ncc(C#N)c(Nc3ccc(OCc4ccccn4)c(Cl)c3)c2cc1NC(=O)/C=C/CN(C)C [Neratinib] (1000 nM) |  |  |  | 79.1% | 56.1% | 68.4% | 68.8% | 45% | 42.6% | 95.3% | 72.7% | 95.5% | 66.1% | 46.3% | 72.3% | 25.4% | 74.2% | 56.3% | 63.7% | 36.4% | 62.8% | 16.2%
C[C@@H]1C=C2C(=O)O[C@@H]3CC[C@H](C1)[C@]23O [Galiellalactone] (50000 nM) |  |  |  | 108% | 44.3% | 105% | 124% | 71.1% | 72.2% | 102% | 100% | 90.3% | 107% | 93.9% | 101% | 106% | 106% | 89.5% | 105% | 39.1% | 105% | 107%
CN1CCN(c2ccc3nc(-c4c(N)c5c(F)cccc5[nH]c4=O)[nH]c3c2)CC1 [Dovitinib] (1000 nM) | 95.1% | 94.7% | 97.2% |  |  |  |  |  |  |  |  |  |  |  |  |  |  |  |  |  |  | 
C#Cc1cccc(Nc2ncnc3cc(OC)c(OCCCCCCC(=O)NO)cc23)c1 [CUDC-101] (1000 nM) | 72.9% | 63.6% | 33.5% |  |  |  |  |  |  |  |  |  |  |  |  |  |  |  |  |  |  | 
CC(C)(C)c1cc(NC(=O)Nc2ccc(-c3cn4c(n3)sc3cc(OCCN5CCOCC5)ccc34)cc2)no1 [Quizartinib] (1000 nM) |  |  |  | 101% | 91.7% | 112% | 108% | 125% | 106% | 105% | 108% | 88.6% | 104% | 103% | 92.6% | 109% | 113% | 109% | 97% | 114% | 105% | 103%
